Test results published in patent publication US9511134B2, “Inducing immune responses to influenza virus using polypeptide and nucleic acid compositions” (priority 2006, dated 2016).

What was measured:
Assay in all cases: biochemical
Assay type in all cases: binding
DRB1*1302 = DRB1*1302 (Homo sapiens, UniProt P01903+P01911, A100E/A169T/K41T/L162R/M171V/P40S/Q125H/Q178H/Q39Y/Q99D/R42S/S66N/T262R/V115G/W38E/Y61H); conditions: read-out: IC50 nM to purified HLA DRB1*1302
DRB1*0101 = target: T1, DRB1*0101 (Homo sapiens, UniProt P01903+P01911, A100R/D57E/F55L/F60I/F76Y/I96L/L162R/M171V/P40L/Q125E/R42F/V115G/Y59C); conditions: IC50 nM to purified HLA DRB1*0101
T1 construct: made in house; host or cells: EBV-transformed homozygous human B cell lines, transfected fibroblasts or single-allele 721.221 transfectants

DRB1*0401 = target: T2, DRB1*0401 (Homo sapiens, UniProt P01903+P01911, A100K/A169T/F76Y/I96L/K127E/L162R/M171V/N62H/P40V/Q125Y/R42H/S133A/S149N/S66Y/V115G/V209L/W38E); conditions: read-out: IC50 nM to purified HLA DRB1*0401
T2 construct: made in house; host or cells: EBV-transformed homozygous human B cell lines, transfected fibroblasts or single-allele 721.221 transfectants

DRB1*1501 = target: T3, DRB1*1501 (Homo sapiens, UniProt P01903+P01911); conditions: read-out: IC50 nM to purified HLA DRB1*1501
T3 construct: made in house; host or cells: EBV-transformed homozygous human B cell lines, transfected fibroblasts or single-allele 721.221 transfectants

DRB1*1302, sequence (P01903 26-254 limits assumed, other chains not shown): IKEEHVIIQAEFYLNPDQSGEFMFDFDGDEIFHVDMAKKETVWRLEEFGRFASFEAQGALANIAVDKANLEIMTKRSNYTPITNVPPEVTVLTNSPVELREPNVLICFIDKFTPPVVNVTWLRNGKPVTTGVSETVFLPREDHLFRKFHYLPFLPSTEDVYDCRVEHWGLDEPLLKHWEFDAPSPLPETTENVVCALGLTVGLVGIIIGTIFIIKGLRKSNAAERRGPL

Row | Structure (SMILES) | IC50 (DRB1*1302) | IC50 (DRB1*0101) | IC50 (DRB1*0401) | IC50 (DRB1*1501)
1 | CC[C@H](C)[C@H](NC(=O)[C@H](Cc1ccc(O)cc1)NC(=O)[C@@H](NC(=O)[C@@H](NC(=O)[C@@H]1CCCN1)[C@@H](C)O)[C@@H](C)O)C(=O)N[C@@H](CO)C(=O)N[C@H](C(=O)NCC(=O)N[C@H](C(=O)N[C@@H](CO)C(=O)N[C@H](C(=O)N[C@@H](CC(C)C)C(=O)N[C@@H](CC(N)=O)C(=O)N[C@@H](CCC(N)=O)C(=O)N[C@@H](CCCNC(=N)N)C(=O)N[C@@H](CC(C)C)C(=O)O)[C@@H](C)O)[C@@H](C)O)C(C)C [Flu.HA.210] | 957 nM | 190 nM | 59 nM | 
2 | CC[C@H](C)[C@H](NC(=O)[C@H](C)NC(=O)[C@H](CC(=O)O)NC(=O)[C@H](CC(N)=O)NC(=O)[C@@H]1CCCN1C(=O)[C@H](CCCCN)NC(=O)[C@H](CC(C)C)NC(=O)[C@@H](NC(=O)[C@@H](NC(=O)[C@H](Cc1c[nH]c2ccccc12)NC(=O)[C@H](Cc1ccccc1)NC(=O)[C@H](Cc1ccccc1)NC(=O)[C@H](CCC(=O)O)NC(=O)[C@H](CCSC)NC(=O)[C@@H](N)CCCNC(=N)N)[C@@H](C)O)[C@@H](C)CC)C(=O)O [Flu.HA.241] |  | 62 nM |  | 
3 | CC[C@H](C)[C@H](NC(=O)[C@H](C)NC(=O)[C@H](CC(=O)O)NC(=O)[C@H](CC(N)=O)NC(=O)[C@@H]1CCCN1C(=O)[C@H](CCCCN)NC(=O)[C@H](CC(C)C)NC(=O)[C@@H](NC(=O)[C@@H](NC(=O)[C@@H](N)Cc1c[nH]c2ccccc12)[C@@H](C)O)[C@@H](C)CC)C(=O)N[C@@H](CC(N)=O)C(=O)N[C@@H](Cc1ccccc1)C(=O)N[C@@H](CCC(=O)O)C(=O)N[C@@H](CO)C(=O)N[C@@H](CC(N)=O)C(=O)O [Flu.HA.246] | 31 nM |  |  | 
4 | CC(C)C[C@H](NC(=O)CNC(=O)[C@@H](NC(=O)[C@H](C)NC(=O)[C@H](CC(C)C)NC(=O)[C@@H](NC(=O)[C@H](CC(C)C)NC(=O)[C@H](CCCNC(=N)N)NC(=O)[C@@H](N)CC(N)=O)C(C)C)[C@@H](C)O)C(=O)N[C@@H](CCCNC(=N)N)C(=O)N[C@@H](CC(N)=O)C(=O)N[C@@H](CO)C(=O)N1CCC[C@H]1C(=O)N[C@@H](CCC(N)=O)C(=O)N[C@@H](CCCNC(=N)N)C(=O)O [Flu.HA.325] |  | 69 nM |  | 
5 | CC(C)C[C@H](NC(=O)[C@H](CCCCN)NC(=O)[C@@H](NC(=O)[C@H](CO)NC(=O)[C@H](C)NC(=O)[C@@H](NC(=O)[C@H](C)NC(=O)[C@H](CCCCN)NC(=O)[C@H](CCC(=O)O)NC(=O)[C@@H](NC(=O)[C@H](CC(C)C)NC(=O)[C@H](Cc1ccccc1)NC(=O)[C@H](CC(N)=O)NC(=O)[C@@H](NC(=O)[C@@H](N)CC(N)=O)[C@@H](C)O)[C@@H](C)O)C(C)C)C(C)C)C(=O)N[C@@H](C)C(=O)O [Flu.NA.51] |  |  |  | 47 nM
6 | CC[C@H](C)[C@H](NC(=O)CNC(=O)[C@H](CC(N)=O)NC(=O)[C@H](Cc1ccc(O)cc1)NC(=O)[C@H](CCCCN)NC(=O)[C@H](CC(C)C)NC(=O)[C@@H](NC(=O)[C@H](C)NC(=O)[C@@H](N)C(C)C)C(C)C)C(=O)N[C@H](C(=O)N[C@H](C(=O)N[C@@H](CC(=O)O)C(=O)N[C@H](C(=O)N[C@H](C(=O)N[C@@H](CCCCN)C(=O)N[C@@H](CO)C(=O)N[C@@H](Cc1c[nH]c2ccccc12)C(=O)O)[C@@H](C)CC)[C@@H](C)O)[C@@H](C)O)[C@@H](C)CC [Flu.NA.183] |  | 3390 nM | 319 nM | 19 nM
7 | CC[C@H](C)[C@H](NC(=O)[C@H](CCCCN)NC(=O)[C@@H](N)Cc1c[nH]cn1)C(=O)N[C@@H](Cc1ccccc1)C(=O)N[C@@H](CCCCN)C(=O)N[C@@H](CCSC)C(=O)N[C@@H](CCC(=O)O)C(=O)N[C@@H](CCCCN)C(=O)NCC(=O)N[C@@H](CCCCN)C(=O)N[C@H](C(=O)N[C@H](C(=O)N[C@@H](CCCCN)C(=O)N[C@@H](CO)C(=O)N[C@H](C(=O)N[C@@H](CCC(=O)O)C(=O)N[C@@H](CC(C)C)C(=O)O)C(C)C)C(C)C)C(C)C [Flu.NA.233] |  | 64 nM |  | 
8 | CC[C@H](C)[C@H](NC(=O)[C@@H](NC(=O)[C@H](CCSC)NC(=O)[C@H](CC(=O)O)NC(=O)[C@@H](NC(=O)[C@H](CC(C)C)NC(=O)[C@H](Cc1ccc(O)cc1)NC(=O)[C@H](CCCNC(=N)N)NC(=O)[C@H](CO)NC(=O)[C@H](C)N)[C@@H](C)O)[C@@H](C)O)C(=O)N[C@@H](CCC(=O)O)C(=O)N[C@@H](CCC(=O)O)C(=O)N[C@@H](CCSC)C(=O)N[C@@H](CO)C(=O)N[C@@H](CCCNC(=N)N)C(=O)O [Flu.NS1.89] |  | 6030 nM | 67 nM | 
9 | CC[C@H](C)[C@H](NC(=O)[C@H](CC(C)C)NC(=O)[C@@H](NC(=O)[C@H](CCC(=O)O)NC(=O)[C@H](CC(C)C)NC(=O)[C@H](CCCNC(=N)N)NC(=O)[C@H](CC(=O)O)NC(=O)[C@H](Cc1ccccc1)NC(=O)[C@@H](NC(=O)[C@@H](NC(=O)[C@H](CO)NC(=O)[C@H](Cc1ccccc1)NC(=O)[C@@H](N)CC(N)=O)C(C)C)[C@@H](C)CC)[C@@H](C)O)C(=O)N[C@@H](CC(C)C)C(=O)N[C@@H](CC(C)C)C(=O)O [Flu.NS1.136] |  | 17 nM |  | 6930 nM
10 | CC[C@H](C)[C@H](NC(=O)[C@H](CCC(=O)O)NC(=O)[C@H](CCC(N)=O)NC(=O)[C@H](CCC(=O)O)NC(=O)[C@@H](NC(=O)[C@H](CCC(=O)O)NC(=O)[C@H](Cc1ccccc1)NC(=O)[C@@H](N)CC(C)C)C(C)C)C(=O)N[C@@H](CCCNC(=N)N)C(=O)N[C@H](C(=O)N[C@@H](Cc1ccccc1)C(=O)N[C@@H](CO)C(=O)N[C@@H](Cc1ccccc1)C(=O)N[C@@H](CCC(N)=O)C(=O)N[C@@H](CC(C)C)C(=O)O)[C@@H](C)O [Flu.NS2.182] |  |  | 8800 nM | 
11 | CC(C)C[C@H](NC(=O)[C@H](Cc1c[nH]cn1)NC(=O)[C@H](CO)NC(=O)[C@@H](N)CCCNC(=N)N)C(=O)N[C@@H](CCCNC(=N)N)C(=O)N[C@@H](CC(N)=O)C(=O)N[C@@H](CC(=O)O)C(=O)N[C@H](C(=O)N[C@@H](CC(=O)O)C(=O)N[C@H](C(=O)N[C@H](C(=O)N[C@@H](CC(N)=O)C(=O)N[C@@H](Cc1ccccc1)C(=O)N[C@H](C(=O)N[C@@H](CO)C(=O)O)C(C)C)C(C)C)C(C)C)[C@@H](C)O [Flu.PA.511] |  |  | 200 nM | 
12 | CC[C@H](C)[C@H](NC(=O)[C@@H](NC(=O)[C@H](CCC(=O)O)NC(=O)[C@H](CCSC)NC(=O)[C@@H](N)[C@@H](C)O)C(C)C)C(=O)N[C@@H](CCC(N)=O)C(=O)N[C@@H](CCC(N)=O)C(=O)N[C@H](C(=O)N[C@@H](CCCNC(=N)N)C(=O)N[C@H](C(=O)N[C@@H](CC(=O)O)C(=O)N[C@@H](CCCCN)C(=O)N[C@@H](CC(C)C)C(=O)N[C@H](C(=O)N[C@@H](CCC(N)=O)C(=O)O)[C@@H](C)O)C(C)C)[C@@H](C)O [Flu.PB1.113] | 180 nM |  |  | 
13 | CC[C@H](C)[C@H](NC(=O)[C@H](CCC(=O)O)NC(=O)[C@H](CCSC)NC(=O)[C@H](CCC(=O)O)NC(=O)[C@H](CCC(=O)O)NC(=O)[C@@H](N)CCCCN)C(=O)N[C@H](C(=O)N[C@H](C(=O)N[C@@H](Cc1c[nH]cn1)C(=O)N[C@@H](Cc1ccccc1)C(=O)N[C@@H](CCC(N)=O)C(=O)N[C@@H](CCCNC(=N)N)C(=O)N[C@@H](CCCCN)C(=O)N[C@@H](CCCNC(=N)N)C(=O)N[C@@H](CCCNC(=N)N)C(=O)O)[C@@H](C)O)[C@@H](C)O [Flu.PB1.179] |  | 1400 nM |  | 
14 | CSCC[C@H](NC(=O)[C@H](CO)NC(=O)[C@H](Cc1ccccc1)NC(=O)[C@H](CC(N)=O)NC(=O)[C@H](C)NC(=O)[C@@H](N)C(C)C)C(=O)N[C@@H](CCC(=O)O)C(=O)N[C@@H](CC(C)C)C(=O)N1CCC[C@H]1C(=O)N[C@@H](CO)C(=O)N[C@@H](Cc1ccccc1)C(=O)NCC(=O)N[C@H](C(=O)N[C@@H](CO)C(=O)NCC(=O)O)C(C)C [Flu.PB1.505] |  | 20 nM | 17 nM | 
15 | CSCC[C@H](NC(=O)[C@H](CC(C)C)NC(=O)[C@H](CCC(=O)O)NC(=O)[C@@H](N)Cc1c[nH]c2ccccc12)C(=O)N[C@@H](CC(=O)O)C(=O)N[C@@H](CCC(=O)O)C(=O)N[C@@H](CC(=O)O)C(=O)N[C@@H](Cc1ccc(O)cc1)C(=O)N[C@@H](CCC(N)=O)C(=O)NCC(=O)N[C@@H](CCCNC(=N)N)C(=O)N[C@@H](CC(C)C)C(=O)N[C@@H](CS)C(=O)N[C@@H](CC(N)=O)C(=O)N1CCC[C@H]1C(=O)O [Flu.PB1.616] |  |  | 480 nM | 
16 | CC[C@H](C)[C@H](NC(=O)CNC(=O)[C@H](CCCNC(=N)N)NC(=O)[C@H](CCC(N)=O)NC(=O)[C@H](CO)NC(=O)[C@@H](NC(=O)[C@H](CC(N)=O)NC(=O)[C@H](CC(C)C)NC(=O)[C@@H](NC(=O)[C@H](CO)NC(=O)[C@@H](N)CCCNC(=N)N)[C@@H](C)CC)[C@@H](C)O)C(=O)N[C@@H](CC(C)C)C(=O)N[C@@H](CCC(=O)O)C(=O)N[C@@H](CC(=O)O)C(=O)N[C@@H](CCC(=O)O)C(=O)O [Flu.PB1.675] | 71 nM | 94 nM |  | 
17 | CC[C@H](C)[C@H](NC(=O)[C@@H](NC(=O)[C@@H](N)CC(=O)O)C(C)C)C(=O)N[C@@H](CCSC)C(=O)N[C@@H](CCC(=O)O)C(=O)N[C@H](C(=O)N[C@H](C(=O)N[C@@H](Cc1ccccc1)C(=O)N1CCC[C@H]1C(=O)N[C@@H](CC(N)=O)C(=O)N[C@@H](CCC(=O)O)C(=O)N[C@H](C(=O)NCC(=O)N[C@@H](C)C(=O)N[C@@H](CCCNC(=N)N)C(=O)O)C(C)C)C(C)C)C(C)C [Flu.PB2.164] |  |  | 1100 nM | 
18 | CC[C@H](C)[C@H](NC(=O)CNC(=O)[C@@H](NC(=O)[C@@H](N)CCSC)[C@@H](C)CC)C(=O)N[C@@H](CC(C)C)C(=O)N1CCC[C@H]1C(=O)N[C@@H](CC(=O)O)C(=O)N[C@@H](CCSC)C(=O)N[C@H](C(=O)N1CCC[C@H]1C(=O)N[C@@H](CO)C(=O)N[C@H](C(=O)N[C@@H](CCC(=O)O)C(=O)N[C@@H](CCSC)C(=O)N[C@@H](CO)C(=O)O)[C@@H](C)O)[C@@H](C)O [Flu.PB2.463] |  |  | 31 nM | 
